Measured values published in publication PMC9260180, “Blocking the Farnesyl Pocket of PDEδ Reduces Rheb-Dependent mTORC1 Activation and Survival of Tsc2-Null Cells” (Frontiers in Pharmacology, 2022).
Several values for one entry are separate records, joined by “and”; a condition that tells them apart may be missing. Identical values can stand only once.

Experiments:
Tsc2-wt MEFs = assay: XTT viability assay in Tsc2-wt MEFs; format: cell-based, mouse
Protocol: (§1) We used XTT based-Cell Proliferation Kit (Biological Industries, USA) according to the manufacturer’s instructions to assess cell viability and proliferation. Briefly, Tsc2-null or Tsc2-wt MEF cells were seeded in 96-well plates and grown in DMEM without phenol red (Biological Industries, Cromwell, USA) at 37°C in 5% CO2. […] After 4 h of incubation, viable cells were detected by measuring the absorbance at 450nm/630 nm using TECAN Infinite® 200 PRO microplate reader (Tecan Group Ltd. Männedorf, Switzerland). The results were expressed as a percentage of absorbance relative to the control group.

Smad/Smurf = assay: yeast two-hybrid LacZ quantitative measurement, Smad/Smurf control interaction; details: 7 and 24 h, titrated concentrations
Protocol: As a control, a yeast two-hybrid was performed using Smad (bait), Smurf (prey), and the empty vectors. To verify positive clones, diploid cells were grown on selective media either lacking tryptophan and leucine (DO-2) or lacking tryptophan, leucine, and histidine (DO-3). To detect lacZ gene expression, diploid cells co-transformed with bait and prey constructs were grown on DO-2 medium supplemented with X-gal substrate. […] To detect lacZ gene expression, diploid cells co-transformed with bait and prey constructs were grown on DO-2 medium supplemented with X-gal substrate. Co-transformed cells able to grow on DO-2 medium and form blue colonies in the presence of X-gal were considered positive bait-prey interaction.

Caco-2 cells = assay: Caco-2 permeability assay
Protocol: To measure cellular permeability, Caco-2 cells were seeded on a transwell membrane in a 24-well format and grown for 3 weeks to form a monolayer of differentiated cells.

[1] = test system: mTORC1 signaling in Tsc2-wt MEFs; assay: mTORC1 signaling by immunoblotting in Tsc2-wt MEFs; format: cell-based, mouse; details: 4 h and 24 h, Deltasonamide 1 6 µM, rapamycin 20 nM
Protocol: (§2) Proteins were extracted in cold lysis buffer (50 mM Tris-HCl pH 7.4; 10% glycerol; 200 mM NaCl2; 2.5 mM MgCl2; 1% Triton X-100; 1/100 protease inhibitors; 1/100 phosphatase inhibitors) and the protein concentration was determined by Bradford assay. Total proteins were denaturized in loading buffer (50 mM Tris-HCl pH 6.8; 2% SDS; 0.1% bromophenol blue; 10% glycerol; 1% β-mercaptoethanol) by boiling for 5 min, separated by SDS-PAGE, and transferred to Polyvinylidene fluoride (PVDF) membrane (MilliporeSigma, Burlington, USA). For immunoblotting, all primary antibodies were diluted 1:1.000, except for anti-β-Actin antibody (1:10000 dilution). Secondary antibodies were diluted 1:10000. Immunolabeled proteins were detected using ECL Western Blotting Detection Reagent (GE Healthcare, Chicago, USA) and visualized in Syngene PXi6 Documentation System (Frederick, MD, USA).
Supplementary Figure 4. […].
and 24 h (right panel). Lysates were characterized by immunoblotting of the indicated proteins. Results
are representative of three independent experiments.
(§3) (1 picture or pasted object on this page, not shown here)

Tsc2-null MEFs [2] = assay: Live/Dead and CytoTox-Glo cell assay in Tsc2-null MEFs; details: Deltasonamide 1 6 µM, rapamycin 20 nM; for effect on cell numbers: vs DMSO
[3] = test system: Rheb localization in Tsc2-wt MEF cells; assay: GFP-Rheb cellular localization by confocal microscopy in Tsc2-wt MEFs; format: cell-based, mouse; details: Tsc2-wt MEF cells with GFP-Rheb, 6 µM, 24 h
Protocol: For GFP proteins, Tsc2-wt MEF cells were electroporated with 3 µg of pEGFP-C1-RhebWT (GFP-Rheb) or pEGFP-C1 (GFP only) using NEON™ Transfection System (Invitrogen). Briefly, 200.000 cells were electroporated with the 10 µl tips at 1100 V for 30 mseg (one pulse). […] Cells were fixed with 4% w/v paraformaldehyde (PFA) for 10 min and permeabilized with 0.1% Triton X-100 in Phosphate-Buffered Saline (PBS) for 30 min. Then, samples were blocked for 1 h with 3% BSA-PBS and incubated overnight with primary antibody (1:200 dilution) in a dark/wet chamber at 4°C. Next, fixed cells were incubated with secondary antibody (1:500 dilution) and Hoechst (1:250 dilution) for 1 h in the dark/wet chamber at room temperature. The coverslips were mounted on a slide with DAKO mounting medium (Agilent, Santa Clara, USA). Images were analyzed by confocal fluorescence microscopy using the LSM780 NLO Confocal Spectral Microscope (Carl Zeiss, Jena, Germany).
Supplementary Figure 5. Deltasonamide 1 affects the cellular localization of Rheb. Tsc2-wt MEF cells were transfected with pEGFP-C1-GFP-RhebWT (GFP -Rheb) or pEGFP-C1 (GFP only) and treated with 6µM Deltas onamide 1 or DMSO for 24 hours. GFP-Rheb and GFP levels were analyzed by immunofluorescence and confocal microscopy. Scale bar = 20 µm.
as §3

[4] = test system: phospho-p70 S6 kinase (Thr389) in Tsc2-null MEFs; assay: S6K phosphorylation (Thr389) by Western blot in Tsc2-null MEFs; details: 24 h
From the text: Levels of phospho-p70 S6 kinase (Thr389) (pS6K) were detected by Western blot and measured using densitometric analysis.

[5] = test system: phospho-4EBP1 (Thr37/46, Thr70) in Tsc2-null MEFs; assay: 4EBP1 phosphorylation by Western blot in Tsc2-null MEFs; format: cell-based, mouse; details: 24 h; for effect on 4EBP1 phosphorylation (p4EBP1 levels, top band): 6 µM; for change in electrophoretic pattern of total and phosphorylated 4EBP1: Deltasonamide 1 6 µM, rapamycin 20 nM
Protocol: (§4) p53−/− Tsc2+/+ mouse embryonic fibroblast (MEF) and p53−/− Tsc2−/− MEF cells (hereinafter referred to as Tsc2-wt and Tsc2-null MEFs) were kindly provided by David J. Kwiatkowski (Harvard Medical School, Boston, MA, USA). MEF cells were cultured in Dulbecco’s modified Eagles’s medium (DMEM) (Corning, New York, USA), supplemented with 100 μg/ml streptomycin (HyClone), 100 U/ml penicillin (HyClone), 10% fetal bovine serum (Biological Industries, Cromwell, USA) and incubated at 37°C in 5% CO2.
as §2

[6] = test system: phospho-S6 ribosomal protein (Ser235/236) in Tsc2-null MEFs; assay: S6 phosphorylation (pS6) by Western blot in Tsc2-null MEFs; format: cell-based, mouse; details: 0.5-6 µM, 24 h
Protocol: as §4
Proteins were extracted in cold lysis buffer (50 mM Tris-HCl pH 7.4; 10% glycerol; 200 mM NaCl2; 2.5 mM MgCl2; 1% Triton X-100; 1/100 protease inhibitors; 1/100 phosphatase inhibitors) and the protein concentration was determined by Bradford assay. […] Immunolabeled proteins were detected using ECL Western Blotting Detection Reagent (GE Healthcare, Chicago, USA) and visualized in Syngene PXi6 Documentation System (Frederick, MD, USA).
For GFP proteins, Tsc2-wt MEF cells were electroporated with 3 µg of pEGFP-C1-RhebWT (GFP-Rheb) or pEGFP-C1 (GFP only) using NEON™ Transfection System (Invitrogen). […] Images were analyzed by confocal fluorescence microscopy using the LSM780 NLO Confocal Spectral Microscope (Carl Zeiss, Jena, Germany).

Tsc2-null MEFs [7] = assay: XTT viability assay in Tsc2-null MEFs; format: cell-based, mouse; details: after 24 h, Deltasonamide 1 6 µM, rapamycin 20 nM
Protocol: as §1

Tsc2-null MEFs [8] = assay: BrdU assay in Tsc2-null MEFs; format: cell-based, mouse; details: 24 h, Deltasonamide 1 6 µM, rapamycin 20 nM
Protocol: BrdU (5-Bromo-2-deoxyuridine) labeling, and detection kit II (Roche, Basel, Switzerland) were used for the analysis. Briefly, cells were labeled 45 min with 50 µM BrdU and fixed for 20 min at […] with a fixing solution (15 mM glycine pH 2.0, 70% ethanol). Then, cells were incubated with anti-BrdU antibody (1:20 dilution) and nucleases in incubation buffer (66 mM Tris, 0.66 mM MgCl2, 1 mM β-mercaptoethanol) for 30 min at 37°C in a wet chamber. For secondary antibody, Alexa 555 anti-mouse conjugated (1:500 dilution) was used. The nuclei were labeled with Hoechst 33342 diluted 1:250. Finally, the samples were mounted on a slide with DAKO mounting medium. At least 3 images were captured using Olympus CKX41 fluorescence microscope for each condition. BrdU positive cells were analyzed using ImageJ software.

[9] = test system: EGF-induced S6 phosphorylation in pancreatic cancer cell lines; set-up: method as in Papke et al., 2016; details: another pancreatic cancer cell line; ref Papke et al., 2016; cited from earlier work

Structure (SMILES)	effect on cell viability (XTT) (Tsc2-wt MEFs; 72 h, Deltasonamide 1 6 µM)	effect on the interaction between Smad and Smurf (Smad/Smurf)	Caco-2 (pH 6.5/7.4) Papp (A→B) (Caco-2 cells; 10 µM, 2 h, 37°C)	Caco-2 (pH 6.5/7.4) Papp (B→A) (Caco-2 cells; 10 µM, 2 h, 37°C)	effect on mTORC1 activity/signaling [1]	effect on dead cells (Tsc2-null MEFs [2]; 24 h)	effect on cell numbers (Tsc2-null MEFs [2]; 24 h)	effect on percentage of dead cells (Tsc2-null MEFs [2]; 48 h)	effect on intracellular Rheb distribution [3]	LogIC50 of pS6K levels (Figure 3) ([4]; 0.5–8 µM)	effect on 4EBP1 phosphorylation (p4EBP1 levels, top band) [5]	change in electrophoretic pattern of total and phosphorylated 4EBP1 [5]	effect on S6 phosphorylation (pS6) [6]	effect on cell viability (XTT) (Tsc2-null MEFs [7])	effect on BrdU incorporation (Tsc2-null MEFs [8])	Caco-2 (pH 6.5/7.4) Papp (A→B) (Caco-2 cells; Caco-2, pH 6.5)	Caco-2 (pH 6.5/7.4) Papp (B→A) (Caco-2 cells; Caco-2, pH 6.5)	effect on EGF-induced S6 phosphorylation [9]	effect on S6K phosphorylation ([4]; 6 µM)	effect on cell viability (XTT) (Tsc2-wt MEFs; 48 h, rapamycin 20 nM)
CNc1nccc(CN(CC2CCNCC2)S(=O)(=O)c2ccc(S(=O)(=O)N(Cc3ccc(Cl)cc3)C3CCCC3)cc2)n1 [Deltasonamide 1]	reduced	not affected	1.6 10^−6 cm/s and 1.56 10^−6 cm/s	13.67 10^−6 cm/s	did not affect	not associated with an increase in dead cells	significantly decreased	significantly increased	disrupted	-5.347	could not detect a significant effect	caused the appearance of lower molecular weight bands	dose-dependently reduced	significantly diminished	significantly reduced	–	–	–	–	–
Cc1ccc(-n2nc3c(=O)n(CCCC(=O)NCC(C)c4ccccc4)nc(C)c3c2C)cc1 (stereo not shown) [Deltazinone 1]	–	not affected	–	–	–	–	–	–	–	–	ineffective	–	did not affect	–	–	41.1 10^−6 cm/s	25.1 10^−6 cm/s	ineffective	ineffective	–
CO[C@H]1C[C@@H]2CC[C@@H](C)[C@@](O)(O2)C(=O)C(=O)N2CCCC[C@H]2C(=O)O[C@H]([C@H](C)C[C@@H]2CC[C@@H](O)[C@H](OC)C2)CC(=O)[C@H](C)/C=C(\C)[C@@H](O)[C@@H](OC)C(=O)[C@H](C)C[C@H](C)/C=C/C=C/C=C/1C [rapamycin]	–	–	–	–	significantly affected	–	significantly decreased	–	–	–	–	caused the appearance of lower molecular weight bands	–	significantly diminished	significantly reduced	–	–	–	–	significantly affected
